The text below walks through data of patent US20100190824A1, “Novel Substituted Piperidones as HSP Inducers” (priority 2007, published 2010).

Experiment [1] relates to HSP70b mRNA. The experiment can be described thus: Cellular expression of HSP-70 mRNA in Hela cells (real-time PCR). Type of experiment: cell-based. The settings on record: fold induction of HSP-70b mRNA relative to the vehicle treated control; 4 hours; normalized to 18S rRNA. The procedure:
(§1) Experiments set forth in this section were conducted to determine whether the compounds of the present invention are able to elevate the expression of HSP-70 gene in cells.
(§2) Hela cell-line or primary mixed neurons derived from neonatal rat cerebellum were employed. Induction was carried out for the indicated dose(s) for 4 hours duration and total RNA was isolated. Expression of HSP70b mRNA along-with expression of 18S rRNA was monitored by real-time PCR. HSP70b mRNA expression was normalized relative to the expression of 18S rRNA.
(§3) The results for test compounds were expressed as fold induction of HSP-70 mRNA relative to vehicle treated control and are as shown in Table 2 & 3.
For orientation: In qPCR the cycle at which signal appears reflects the starting amount.

Experiment [2] has as its system HSP70b mRNA. The experiment in a line: Cellular expression of HSP-70 mRNA in primary mixed neurons (real-time PCR). The format is cell-based. The settings on record: fold induction of HSP70b mRNA relative to vehicle treated control; primary mixed neurons from neonatal rat cerebellum; 4 hours; normalized to 18S rRNA. The procedure: as §1, §2, §3
Another experiment relates to TNF-α mRNA. The experiment can be described thus: Inhibition of LPS-induced TNF-α expression in PMA differentiated THP-1 cells. Type of experiment: cell-based, Human. The following applies: LPS (1 ug/ml) and compound for 4 hours, LPS alone as 100%. The method, then:
The purpose of the present study was to determine the inhibition of lipopolysaccharide(LPS)-induced TNF-α expression in phorbol merstyl ester (PMA) differentiated THP-1 cells.
Human monocytic leukaemia cell line (THP-1), differentiated into macrophage-like cells by PMA treatment was employed. Differentiated cells were treated with either LPS (1 ug/ml) alone or with LPS (1 ug/ml) and compound for 4 hours. Total RNA was isolated and expression of TNF-αmRNA along-with expression of 18S rRNA was monitored by real-time PCR. TNF-α mRNA expression was normalized relative to the expression of 18S rRNA Considering TNF-α expression for cells treated with LPS alone as 100%; the results for test compounds were expressed as % inhibition of TNF-α expression and are as shown in Table 4

Molecules are shown by their SMILES.

As for `CCOC(=O)N1CC(=Cc2ccccn2)C(=O)C(C)(C)C1Cc1ccc(OC)cc1` (stereo not shown) [Compound 13, 2-(4-Methoxy-benzyl)-3,3-dimethyl-4-oxo-5-[1-pyridin-2-yl-methylidene]-piperidine-1-carboxylic acid ethyl ester], the “HSP Induction in Hela cells” value with HSP70b mRNA [1] was “(+++) (193-1536 fold)”. Same read-out and setting: the entry for `COc1ccc(CC2N(C(=O)Oc3ccccc3)CC(=Cc3ccccn3)C(=O)C2(C)C)cc1` (stereo not shown) [Compound 14, 2-(4-Methoxy-benzyl)-3,3-dimethyl-4-oxo-5-[1-pyridin-2-yl-methylidene]-piperidine-1-carboxylic acid phenyl ester] is “(+++) (193-1536 fold)”; for `COc1ccc(CC2N(C(=O)OCC(C)C)CC(=Cc3ccccn3)C(=O)C2(C)C)cc1` (stereo not shown) [Compound 15, 2-(4-Methoxy-benzyl)-3,3-dimethyl-4-oxo-5-[1-pyridin-2-yl-methylidene]-piperidine-1-carboxylic acid isobutyl ester] it is “(++++) (>1536 fold)”; for `COc1ccc(CC2N(C(=O)Nc3c(C)cccc3C)CC(=Cc3ccccn3)C(=O)C2(C)C)cc1` (stereo not shown) [Compound 17, 2-(4-Methoxy-benzyl)-3,3-dimethyl-4-oxo-5-[1-pyridin-2-yl-methylidene]-piperidine-1-carboxylic acid (2,6-dimethyl-phenyl)-amde] it is “(++) (25-192 fold)”. Regarding `CC1(C)CN(Cc2ccccc2)CC(=Cc2cccc(N3CCCCC3)n2)C1=O` [Compound 23, 1-Benzyl-3,3-dimethyl-5-[1-(3,4,5,6-tetrahydro-2H-[1,2′]bipyridinyl-6′-yl)-methylidene]-piperidin-4-one], the “HSP Induction in Hela cells” value in the experiment on HSP70b mRNA [1] was “(+++) (193-1536 fold)”. Still for that read-out and setting: for `CC1(C)CN(Cc2ccccc2)C(c2ccccc2)C(=Cc2ccccn2)C1=O` (stereo not shown) [Compound 25, 1-Benzyl-5,5-dimethyl-2-phenyl-3-[1-pyridin-2-yl-methylidene]-piperidin-4-one] the value was “(++++) (>1536 fold)”; for `CC1(C)CN(Cc2ccccc2)C(c2ccccn2)C(=Cc2cccc(N3CCOCC3)n2)C1=O` (stereo not shown) [Compound 28, 1-Benzyl-5,5-dimethyl-3-[1-(6-morpholin-4-yl-pyridin-2-yl)-methylidene]-2,3,5,6-tetrahydro-1H-[2,2′]bipyridinyl-4-one], “(++++) (>1536 fold)”. On the same count and under the same terms, the entry for `CC1(C)CN(Cc2ccccc2)C(c2ccccn2)C(=Cc2ccccn2)C1=O` (stereo not shown) [Compound 29, 1-Benzyl-5,5-dimethyl-3-[1-pyridin-2-yl-methylidene]-2,3,5,6-tetrahydro-1H-[2,2′]bipyridinyl-4-one] is “(+++) (193-1536 fold)”.

Consider `CSc1ccc(C=C2C(=O)C(C)(C)CN(Cc3ccccc3)C2c2ccccc2)cc1` (stereo not shown) [Compound 30, 1-Benzyl-5,5-dimethyl-3-[1-(4-methylsulfanyl-phenyl)-methylidene]-2-phenyl-piperidin-4-one], for which the “HSP Induction in Hela cells” value with HSP70b mRNA [1] is recorded as “(+) (4-24 fold)”.

In the case of `CC1(C)CN(Cc2ccccc2)C(c2ccccc2)C(=Cc2cccc(N3CCOCC3)n2)C1=O` (stereo not shown) [Compound 31, 1-Benzyl-5,5-dimethyl-3-[1-(6-morpholin-4-yl-pyridin-2-yl)-methylidene]-2-phenyl-piperidin-4-one], the “HSP Induction in Hela cells” value in the experiment on HSP70b mRNA [1] is “(++) (25-192 fold)”.

Take `CC1(C)CN(Cc2ccccc2)C(c2cccs2)C(=Cc2cccc(N3CCOCC3)n2)C1=O` (stereo not shown) [Compound 33, 1-Benzyl-5,5-dimethyl-3-[1-(6-morpholin-4-yl-pyridin-2-yl)-methylidene]-2-thiophen-2-yl-piperidin-4-one]: the “HSP Induction in Hela cells” value in the experiment with HSP70b mRNA [1] is listed as “(+++) (193-1536 fold)”. For `CC1(C)CN(CCc2cccs2)CC(=Cc2cccc(N3CCOCC3)n2)C1=O` [Compound 69, 3,3-Dimethyl-5-[1-(6-morpholin-4-yl-pyridin-2-yl)-methylidene]-1-(2-thiophen-2-yl-ethyl)-piperidin-4-one], the “HSP Induction in mixed neuron” value with HSP70b mRNA [2] was “(++++) (>16 fold)”. Further, in the experiment on TNF-α mRNA, the “TNF-alpha Inhibition” value is reported as “(+++) (61-80%)”. For `CC1(C)CN(CCc2cccs2)CC(=Cc2ccccn2)C1=O` [Compound 79, 3,3-Dimethyl-5-[1-pyridin-2-yl-methylidene]-1-(2-thiophen-2-yl-ethyl)-piperidin-4-one], in that order: “(+++) (9-16 fold)” and “(++++) (>80%)”. The like results for `CC1(C)CN(Cc2ccco2)C(c2ccccc2)C(=Cc2ccccn2)C1=O` (stereo not shown) [Compound 82, 1-Furan-2-ylmethyl-5,5-dimethyl-2-phenyl-3-[1-pyridin-2-yl-methylidene]-piperidin-4-one] were, in that order, “(+++) (9-16 fold)” and “(++++) (>80%)”. For `CN1CC(C)(C)C(=O)C(=Cc2ccccn2)C1c1ccccc1` (stereo not shown) [Compound 85, 1,5,5-Trimethyl-2-phenyl-3-[1-pyridin-2-yl-methylidene]-piperidin-4-one], in that order: “(++) (5-8 fold)” and “(+) (21-40%)”.

As for `COc1cc(C2C(=Cc3ccccn3)C(=O)C(C)(C)CN2Cc2ccco2)cc(OC)c1OC` (stereo not shown) [Compound 90, 1-Furan-2-ylmethyl-5,5-dimethyl-3-[1-pyridin-2-yl-methylidene]-2-(3,4,5-trimethoxy-phenyl)-piperidin-4-one], the “HSP Induction in mixed neuron” value in the experiment with HSP70b mRNA [2] is “(+) (2-4 fold)”. Also, in the experiment on TNF-α mRNA, the “TNF-alpha Inhibition” value is on record as “(++) (41-60%)”. The like results for `O=C1C(=Cc2cccc(N3CCOCC3)n2)C(=O)N(Cc2ccccc2)CC1c1ccccc1` (stereo not shown) [Compound 103, 1-Benzyl-3-[1-(6-morpholin-4-yl-pyridin-2-yl)-methylidene]-5-phenyl-piperidine-2,4-dione] were, in that order, “(+) (2-4 fold)” and “(+) (21-40%)”. The like results for `CC1(C)C(=O)C(=Cc2ccccn2)CN(C(=S)Nc2ccccc2)C1c1ccc(S(C)(=O)=O)cc1` (stereo not shown) [Compound 105, 2-(4-Methanesulfonyl-phenyl)-3,3-dimethyl-4-oxo-5-[1-pyridin-2-yl-methylidene]-piperidine-1-carbothioic acid phenylamide] were, in that order, “(++) (5-8 fold)” and “(++) (41-60%)”. The like results for `CC1(C)CN(Cc2ccccc2)C(c2ccc(S(C)(=O)=O)cc2)C(=Cc2cccc(N3CCOCC3)n2)C1=O` (stereo not shown) [Compound 227, 1-Benzyl-2-(4-methanesulfonyl-phenyl)-5,5-dimethyl-3-[1-(6-morpholin-4-yl-pyridin-2-yl)-methylidene]-piperidin-4-one] were, in that order, “(++++) (>16 fold)” and “(++++) (>80%)”. As to `CC1(C)CN(Cc2ccccc2)C(c2ccc(S(C)(=O)=O)cc2)C(=Cc2ccccn2)C1=O` (stereo not shown) [Compound 229, 1-Benzyl-2-(4-methanesulfonyl-phenyl)-5,5-dimethyl-3-[1-pyridin-2-yl-methylidene]-piperidin-4-one], the “HSP Induction in mixed neuron” value in the experiment with HSP70b mRNA [2] was “(++) (5-8 fold)”. Moreover, the “TNF-alpha Inhibition” value with TNF-α mRNA is “(++++) (>80%)”. For `COc1ccc(OC)c(C2C(=Cc3cccc(N4CCN(C)CC4)n3)C(=O)C(C)(C)CN2Cc2ccc(C)cc2)c1` (stereo not shown) [Compound 234, 2-(2,5-Dimethoxy-phenyl)-5,5-dimethyl-1-(4-methyl-benzyl)-3-[1-[6-(4-methyl-piperazin-1-yl)-pyridin-2-yl]-methylidene]-piperidin-4-one], in that order: “(+++) (9-16 fold)” and “(+++) (61-80%)”.
